Measurements: ChEMBL document CHEMBL1909294, “Translating clinical findings into knowledge in drug safety evaluation--drug induced liver injury prediction system (DILIps)” (PLoS Comput Biol, 2011)

Tests used:
Hepatotoxicity [1] = tested on: Hepatotoxicity;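 as to HepSE Combined Scores: combined hepatic side effect score as listed in the training data of the Drug Induced Liver Injury Prediction System (DILIps)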;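 as to HepSE cholelithiasis: hepatic side effect score for cholelithiasis, drawn from the DILIps training data for predicting drug-induced liver injury; call rule not given here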;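 as to HepSE elevated liver function tests: hepatic side effect score for raised liver function tests, as recorded in the DILIps training set used for predicting drug-induced liver injury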; as to HepSE hepatic failure: call rule not given here;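 as to HepSE hepatic necrosis: score of hepatic side effects for hepatic necrosis, drawn from the training data of DILIps, a prediction system for drug-induced liver injury; call rule not given here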;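 as to HepSE liver function tests abnormal: hepatic side effect score taken from the DILIps (drug-induced liver injury prediction system) training data, here covering abnormal liver function test findings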
Hepatotoxicity [2] = tested on: Hepatotoxicity; remark: listed apart in the source;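 as to HepSE Combined Scores: combined hepatic side effect score as listed in the training data of the Drug Induced Liver Injury Prediction System (DILIps)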;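 as to HepSE cholelithiasis: hepatic side effect score for cholelithiasis, drawn from the DILIps training data for predicting drug-induced liver injury; call rule not given here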;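 as to HepSE elevated liver function tests: hepatic side effect score for raised liver function tests, as recorded in the DILIps training set used for predicting drug-induced liver injury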; as to HepSE hepatic failure: call rule not given here;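 as to HepSE hepatic necrosis: score of hepatic side effects for hepatic necrosis, drawn from the training data of DILIps, a prediction system for drug-induced liver injury; call rule not given here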;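 as to HepSE liver function tests abnormal: hepatic side effect score taken from the DILIps (drug-induced liver injury prediction system) training data, here covering abnormal liver function test findings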
Hepatotoxicity [3] = tested on: Hepatotoxicity; remark: listed apart in the source;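 as to HepSE Combined Scores: combined hepatic side effect score as listed in the training data of the Drug Induced Liver Injury Prediction System (DILIps)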;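 as to HepSE cholelithiasis: hepatic side effect score for cholelithiasis, drawn from the DILIps training data for predicting drug-induced liver injury; call rule not given here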;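 as to HepSE elevated liver function tests: hepatic side effect score for raised liver function tests, as recorded in the DILIps training set used for predicting drug-induced liver injury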; as to HepSE hepatic failure: call rule not given here;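 as to HepSE hepatic necrosis: score of hepatic side effects for hepatic necrosis, drawn from the training data of DILIps, a prediction system for drug-induced liver injury; call rule not given here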;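 as to HepSE liver function tests abnormal: hepatic side effect score taken from the DILIps (drug-induced liver injury prediction system) training data, here covering abnormal liver function test findings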
Hepatotoxicity [4] = tested on: Hepatotoxicity; remark: listed apart in the source;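 as to HepSE Combined Scores: combined hepatic side effect score as listed in the training data of the Drug Induced Liver Injury Prediction System (DILIps)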;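 as to HepSE cholelithiasis: hepatic side effect score for cholelithiasis, drawn from the DILIps training data for predicting drug-induced liver injury; call rule not given here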;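 as to HepSE elevated liver function tests: hepatic side effect score for raised liver function tests, as recorded in the DILIps training set used for predicting drug-induced liver injury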; as to HepSE hepatic failure: call rule not given here;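 as to HepSE hepatic necrosis: score of hepatic side effects for hepatic necrosis, drawn from the training data of DILIps, a prediction system for drug-induced liver injury; call rule not given here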;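 as to HepSE liver function tests abnormal: hepatic side effect score taken from the DILIps (drug-induced liver injury prediction system) training data, here covering abnormal liver function test findings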
Hepatotoxicity [5] = tested on: Hepatotoxicity; remark: listed apart in the source; as to HepSE hepatic failure: call rule not given here
Hepatotoxicity [6] = tested on: Hepatotoxicity; remark: listed apart in the source; as to HepSE hepatic failure: call rule not given here
Hepatotoxicity [7] = tested on: Hepatotoxicity; remark: listed apart in the source
Hepatotoxicity [8] = tested on: Hepatotoxicity; remark: listed apart in the source
Hepatotoxicity [9] = tested on: Hepatotoxicity; remark: listed apart in the source
Hepatotoxicity [10] = tested on: Hepatotoxicity; remark: listed apart in the source
Hepatotoxicity [11] = tested on: Hepatotoxicity; remark: listed apart in the source
Hepatotoxicity [12] = tested on: Hepatotoxicity; remark: listed apart in the source
Hepatotoxicity [13] = tested on: Hepatotoxicity; remark: listed apart in the source
Hepatotoxicity [14] = tested on: Hepatotoxicity; remark: listed apart in the source

CC1CNc2c(cccc2S(=O)(=O)N[C@@H](CCCNC(=N)N)C(=O)N2CC[C@@H](C)C[C@@H]2C(=O)O)C1 (some centres not stated) [ARGATROBAN]
HepSE_hepatic necrosis (Hepatotoxicity [1]): 0 | HepSE_cholelithiasis (Hepatotoxicity [2]): 0 | HepSE_bilirubinemia (Hepatotoxicity [3]): 0 | HepSE_liver function tests abnormal (Hepatotoxicity [4]): 0 | HepSE_hepatitis (Hepatotoxicity [5]): 0 | HepSE_hepatic failure (Hepatotoxicity [6]): 0 | HepSE_elevated liver function tests (Hepatotoxicity [7]): 0 | HepSE_liver fatty (Hepatotoxicity [8]): 0 | HepSE_Combined Scores (Hepatotoxicity [9]): 0 | HepSE_liver disease (Hepatotoxicity [10]): 0 | HepSE_cirrhosis (Hepatotoxicity [11]): 0 | HepSE_cholecystitis (Hepatotoxicity [12]): 0 | HepSE_hepatomegaly (Hepatotoxicity [13]): 0 | HepSE_jaundice (Hepatotoxicity [14]): 0

N=C(N)NCCC[C@H](N)C(=O)O [ARGININE]
HepSE_hepatic necrosis (Hepatotoxicity [1]): 0 | HepSE_cholelithiasis (Hepatotoxicity [2]): 0 | HepSE_bilirubinemia (Hepatotoxicity [3]): 0 | HepSE_liver function tests abnormal (Hepatotoxicity [4]): 0 | HepSE_hepatitis (Hepatotoxicity [5]): 0 | HepSE_hepatic failure (Hepatotoxicity [6]): 0 | HepSE_elevated liver function tests (Hepatotoxicity [7]): 0 | HepSE_liver fatty (Hepatotoxicity [8]): 0 | HepSE_Combined Scores (Hepatotoxicity [9]): 0 | HepSE_liver disease (Hepatotoxicity [10]): 0 | HepSE_cirrhosis (Hepatotoxicity [11]): 0 | HepSE_cholecystitis (Hepatotoxicity [12]): 0 | HepSE_hepatomegaly (Hepatotoxicity [13]): 0 | HepSE_jaundice (Hepatotoxicity [14]): 0

O=C1CCc2ccc(OCCCCN3CCN(c4cccc(Cl)c4Cl)CC3)cc2N1 [ARIPIPRAZOLE]
HepSE_hepatic necrosis (Hepatotoxicity [1]): 0 | HepSE_cholelithiasis (Hepatotoxicity [2]): 1 | HepSE_bilirubinemia (Hepatotoxicity [3]): 1 | HepSE_liver function tests abnormal (Hepatotoxicity [4]): 0 | HepSE_hepatitis (Hepatotoxicity [5]): 1 | HepSE_hepatic failure (Hepatotoxicity [6]): 0 | HepSE_elevated liver function tests (Hepatotoxicity [7]): 0 | HepSE_liver fatty (Hepatotoxicity [8]): 0 | HepSE_Combined Scores (Hepatotoxicity [9]): 6 | HepSE_liver disease (Hepatotoxicity [10]): 0 | HepSE_cirrhosis (Hepatotoxicity [11]): 0 | HepSE_cholecystitis (Hepatotoxicity [12]): 1 | HepSE_hepatomegaly (Hepatotoxicity [13]): 1 | HepSE_jaundice (Hepatotoxicity [14]): 1

O=[As][As+](=O)[O-] (configuration not stated) [ARSENIC TRIOXIDE]
HepSE_hepatic necrosis (Hepatotoxicity [1]): 0 | HepSE_cholelithiasis (Hepatotoxicity [2]): 0 | HepSE_bilirubinemia (Hepatotoxicity [3]): 0 | HepSE_liver function tests abnormal (Hepatotoxicity [4]): 0 | HepSE_hepatitis (Hepatotoxicity [5]): 0 | HepSE_hepatic failure (Hepatotoxicity [6]): 0 | HepSE_elevated liver function tests (Hepatotoxicity [7]): 0 | HepSE_liver fatty (Hepatotoxicity [8]): 0 | HepSE_Combined Scores (Hepatotoxicity [9]): 0 | HepSE_liver disease (Hepatotoxicity [10]): 0 | HepSE_cirrhosis (Hepatotoxicity [11]): 0 | HepSE_cholecystitis (Hepatotoxicity [12]): 0 | HepSE_hepatomegaly (Hepatotoxicity [13]): 0 | HepSE_jaundice (Hepatotoxicity [14]): 0

CCCNC(C)C(=O)Nc1c(C)csc1C(=O)OC (configuration not stated) [ARTICAINE]
HepSE_hepatic necrosis (Hepatotoxicity [1]): 0 | HepSE_cholelithiasis (Hepatotoxicity [2]): 0 | HepSE_bilirubinemia (Hepatotoxicity [3]): 0 | HepSE_liver function tests abnormal (Hepatotoxicity [4]): 0 | HepSE_hepatitis (Hepatotoxicity [5]): 0 | HepSE_hepatic failure (Hepatotoxicity [6]): 0 | HepSE_elevated liver function tests (Hepatotoxicity [7]): 0 | HepSE_liver fatty (Hepatotoxicity [8]): 0 | HepSE_Combined Scores (Hepatotoxicity [9]): 0 | HepSE_liver disease (Hepatotoxicity [10]): 0 | HepSE_cirrhosis (Hepatotoxicity [11]): 0 | HepSE_cholecystitis (Hepatotoxicity [12]): 0 | HepSE_hepatomegaly (Hepatotoxicity [13]): 0 | HepSE_jaundice (Hepatotoxicity [14]): 0

CC(=O)Oc1ccccc1C(=O)O [ASPIRIN]
HepSE_hepatic necrosis (Hepatotoxicity [1]): 0 | HepSE_cholelithiasis (Hepatotoxicity [2]): 0 | HepSE_bilirubinemia (Hepatotoxicity [3]): 0 | HepSE_liver function tests abnormal (Hepatotoxicity [4]): 0 | HepSE_hepatitis (Hepatotoxicity [5]): 0 | HepSE_hepatic failure (Hepatotoxicity [6]): 0 | HepSE_elevated liver function tests (Hepatotoxicity [7]): 0 | HepSE_liver fatty (Hepatotoxicity [8]): 0 | HepSE_Combined Scores (Hepatotoxicity [9]): 0 | HepSE_liver disease (Hepatotoxicity [10]): 0 | HepSE_cirrhosis (Hepatotoxicity [11]): 0 | HepSE_cholecystitis (Hepatotoxicity [12]): 0 | HepSE_hepatomegaly (Hepatotoxicity [13]): 0 | HepSE_jaundice (Hepatotoxicity [14]): 0

COC(=O)N[C@H](C(=O)N[C@@H](Cc1ccccc1)[C@@H](O)CN(Cc1ccc(-c2ccccn2)cc1)NC(=O)[C@@H](NC(=O)OC)C(C)(C)C)C(C)(C)C [ATAZANAVIR]
HepSE_hepatic necrosis (Hepatotoxicity [1]): 0 | HepSE_cholelithiasis (Hepatotoxicity [2]): 1 | HepSE_bilirubinemia (Hepatotoxicity [3]): 1 | HepSE_liver function tests abnormal (Hepatotoxicity [4]): 0 | HepSE_hepatitis (Hepatotoxicity [5]): 1 | HepSE_hepatic failure (Hepatotoxicity [6]): 0 | HepSE_elevated liver function tests (Hepatotoxicity [7]): 0 | HepSE_liver fatty (Hepatotoxicity [8]): 1 | HepSE_Combined Scores (Hepatotoxicity [9]): 7 | HepSE_liver disease (Hepatotoxicity [10]): 0 | HepSE_cirrhosis (Hepatotoxicity [11]): 0 | HepSE_cholecystitis (Hepatotoxicity [12]): 1 | HepSE_hepatomegaly (Hepatotoxicity [13]): 1 | HepSE_jaundice (Hepatotoxicity [14]): 1

CNCC[C@@H](Oc1ccccc1C)c1ccccc1 [ATOMOXETINE]
HepSE_hepatic necrosis (Hepatotoxicity [1]): 0 | HepSE_cholelithiasis (Hepatotoxicity [2]): 0 | HepSE_bilirubinemia (Hepatotoxicity [3]): 0 | HepSE_liver function tests abnormal (Hepatotoxicity [4]): 1 | HepSE_hepatitis (Hepatotoxicity [5]): 0 | HepSE_hepatic failure (Hepatotoxicity [6]): 0 | HepSE_elevated liver function tests (Hepatotoxicity [7]): 0 | HepSE_liver fatty (Hepatotoxicity [8]): 0 | HepSE_Combined Scores (Hepatotoxicity [9]): 1 | HepSE_liver disease (Hepatotoxicity [10]): 0 | HepSE_cirrhosis (Hepatotoxicity [11]): 0 | HepSE_cholecystitis (Hepatotoxicity [12]): 0 | HepSE_hepatomegaly (Hepatotoxicity [13]): 0 | HepSE_jaundice (Hepatotoxicity [14]): 0
